Data reported in US7781485B2, “Hsp90 family protein inhibitors” (Kyowa Hakko Kirin Co., Ltd., priority 2004, dated 2010).

tested on: human mammary cancer-derived KPL-4 cells; assay: Growth inhibition test on human mammary cancer-derived KPL-4 cells (WST-1); assay type: cell-based; details: KPL4, 72 hours culture, read-out: 50% growth inhibitory concentration (GI50)
Description: Two thousand cells of human mammary cancer-derived KPL-4 cells were inoculated into each well of a 96-well microplate (manufactured by Nunc Corp.), and using Dulbecco's Modified Eagle's Medium (DMEM) (culture medium) containing 10% fetal calf serum (FCS), preculturing was performed in a 5% carbon dioxide incubator at 37° C. for 24 hours. A dimethyl sulfoxide (DMSO) solution of each test compound prepared in a concentration of 10 mmol/L was diluted with the culture medium step-by-step to a final concentration of […], and the diluted solution was added to each well. The individual wells were further cultured in the 5% carbon dioxide incubator at 37° C. for 72 hours. After completion of the culturing, 20 μL of WST-1 {4-[3-(4-Iodophenyl)-2-(4-nitrophenyl)-2H-5-tetrazolio]-1,3-benzene disulfonate} reagent mixture (manufactured by Roche Diagnostic Corp.) diluted to twice its original amount by culture medium was added to each well, and culturing was performed in the 5% carbon dioxide incubator at 37° C. for 1 hour. Using a microplate spectrophotometer (Model 550; manufactured by Bio-Rad), the absorbance of each well was measured at 450 nm and 655 nm. The cell growth inhibitory activity was expressed as 50% growth inhibitory concentration (GI50). The method for calculating the GI50 value is as follows. A value obtained by subtracting the absorbance at 655 nm from the absorbance at 450 nm (absorbance difference) was calculated for each well. The absorbance difference obtained for cells not treated with a test compound was designated as 100%, which was compared with the absorbance difference obtained for cells treated with each compound at various test concentrations, and thus the compound concentration at which cell growth was inhibited by 50% was calculated to determine the GI50 value.

Which GI50 does the source give for `CCCN(C)C(=O)c1c(O)cc(O)c(CC)c1CC(=O)OC` [Compound 15, [2-Ethyl-3,5-dihydroxy-6-(N-methyl-N-propylcarbamoyl)phenyl]acetic acid methyl ester] here?
Its GI50 is at most 50 µM.

How did the GI50 turn out when `CCc1c(O)cc(O)c(C(=O)N(C)CCOC)c1CC(=O)OC` [Compound 16, {2-Ethyl-3,5-dihydroxy-6-[N-(2-methoxyethyl)-N-methylcarbamoyl]phenyl}acetic acid methyl ester] was run?
Its GI50 is at most 50 µM.

For `O=C(NCCc1ccccc1)c1c(O)cc(O)cc1COCc1ccccc1` [Compound 3, 2-(Benzyloxymethyl)-4,6-dihydroxy-N-phenethylbenzamide], which GI50 is on record?
Its GI50 is at most 50 µM.

Which GI50 does the source give for `COC(=O)c1c(O)cc(O)c(Br)c1COCc1ccccc1` [Compound 10, 2-(Benzyloxymethyl)-3-bromo-4,6-dihydroxybenzoic acid methyl ester] here?
Its GI50 is at most 50 µM.

Which GI50 does the source give for `CCc1c(O)cc(O)c(C(=O)N2CCOCC2)c1CC(=O)OC` [Compound 14, [2-Ethyl-3,5-dihydroxy-6-(morpholinocarbonyl)phenyl]acetic acid methyl ester] here?
Its GI50 is at most 50 µM.

With `CCc1c(O)cc(O)c(C(=O)N2CCN(C)CC2)c1CC(=O)OC` [Compound 18, [2-Ethyl-3,5-dihydroxy-6-(4-methylpiperazin-1-ylcarbonyl)phenyl]acetic acid methyl ester] as the molecule, how does the GI50 read?
Its GI50 is at most 50 µM.

How did the GI50 turn out when `O=C(NCc1ccccc1)c1c(O)cc(O)cc1COCc1ccccc1` [Compound 2, N-benzyl-2-(benzyloxymethyl)-4,6-dihydroxybenzamide] was run?
The GI50 was at most 50 µM.

With `CCc1c(O)cc(O)c(C(=O)NCc2ccccc2)c1CCO` [Compound 19, N-benzyl-3-ethyl-4,6-dihydroxy-2-(2-hydroxyethyl)benzamide] as the molecule, how does the GI50 read?
Its GI50 is at most 50 µM.

Which GI50 does the source give for `O=C(NCc1ccccn1)c1c(O)cc(O)c(Cl)c1COCc1ccccc1` [Compound 9, 2-(Benzyloxymethyl)-3-chloro-4,6-dihydroxy-N-(pyridin-2-ylmethyl)benzamide] here?
Its GI50 is at most 50 µM.

Which GI50 does the source give for `CCc1c(O)cc(O)c(C(=O)OC)c1CC(=O)OC` [Compound 23, 3-Ethyl-4,6-dihydroxy-2-(methoxycarbonylmethyl)benzoic acid methyl ester] here?
The GI50 was at most 50 µM.

`CCc1c(O)cc(O)c(C(=O)N2CCCCC2)c1CC(=O)OC` [Compound 17, [2-Ethyl-3,5-dihydroxy-6-(piperidinocarbonyl)phenyl]acetic acid methyl ester] was tested. Which GI50 did it give?
The GI50 was at most 50 µM.

With `O=C(Nc1ccccc1)c1c(O)cc(O)cc1COCc1ccccc1` [Compound 1, 2-(Benzyloxymethyl)-4,6-dihydroxy-N-phenylbenzamide] as the molecule, how does the GI50 read?
Its GI50 is at most 50 µM.
